Data: patent US8859550B2, “Heterocyclic inhibitors of histamine receptors for the treatment of disease” (Kalypsys, Inc., priority 2011, dated 2014)
pEC50: −log10 of the molar value. Like-named read-outs stand apart in the source and are kept apart here.

Assays:
[1] = Equilibrium solubility study; format: physicochemical; settings: for solubility thermodynamic: thermodynamic from solid, read-out: Filtrate Concentration (equilibrium solubility)
Procedure: Equilibrium solubility experiments were conducted for Compound 2 Monohydrochloride Form 1, Compound 2 Monomesylate Form 1 and Compound 2 Monocitrate Form 1 salts in water and pH-5 acetate buffer solution. The results of the equilibrium solubility study are summarized in Table 26 (where “a” indicates FTIR and PXRD spectra of both samples were distinctly different from the known forms of Compound 2 or Compound 2 Monocitrate salt Form 1).

[2] = Solubility in aqueous acetate buffer (80 mM); format: physicochemical; settings: aqueous acetate buffer (80 mM) at pH3.5-4.5
[3] = Solid state form conversion on storage at ambient conditions; format: physicochemical; settings: solid state, ambient conditions
Description: Two crystal forms of Compound 1 Mesylate Salt were obtained from these experiments. Compound 1 Mesylate Salt, Form 1 is a monomesylate reversible monohydrate solid state form that was obtained from ten of the twelve crystallization experiments conducted. […] Compound 1 Mesylate Salt Form 2 was obtained by slow evaporation of gummy solids at ambient temperature in two of twelve screening experiments. Compound 1 Mesylate Salt Form 2 was obtained as a mixture of Form 1 and Form 2 in one of twelve crystallization experiments.
A Compound 1 Mesylate salt form screen was conducted involving about 160 crystallization experiments in 48 solvents and aqueous mixtures was performed conducted as previously described (vide supra). Compound 1 Mesylate Salt Form 1, the reversible monohydrate initially discovered in during the crystallization experiments cited above, was obtained from a variety of solvents and crystallization conditions, including 25 slurry-ripening, six cooling, 16 evaporative and four vapor diffusion experiments. […] Samples of Compound 1, Mesylate Salt Forms 2-5 converted to Compound 1 Mesylate Salt Form 1 in solid state within one week at ambient conditions.

[4] = Gravimetric Vapor Sorption (GVS); format: physicochemical; settings: 25° C.
Procedure: GVS: GVS experiments were conducted on a SurfaceMeasurement Systems DVS-HT at 25° C. The instrument was operated in step mode and the relative humidity (RH) was increased in 10% RH increments from 40% RH to 90% RH, then decreased from 90% RH to 0% RH, then increased a second time from 0% RH to 90% RH, then decreased from 90% RH to 0% RH. An extra step at 75% RH was included in each cycle. The mass equilibrium criterion was set at 0.005% change in mass over time (dm/dt). A minimum step time of 10 minutes and a maximum step time of 240 minutes were specified.

[5] = In-situ salt formation screen (filtrate solubility); format: physicochemical; settings: thermodynamic from solid, read-out: Filtrate Solubility
human H4 [6] = molecular target: T1, human H4 (Homo sapiens, UniProt Q9H3N8); assay: In vitro histamine receptor cell-based assay (aequorin bioluminescence), antagonist mode; settings: CHO-K1 cells expressing human H4, aequorin and Gα16; histamine at EC80
T1 construct: host or cells: CHO-K1
T1 sequence (Q9H3N8 whole entry): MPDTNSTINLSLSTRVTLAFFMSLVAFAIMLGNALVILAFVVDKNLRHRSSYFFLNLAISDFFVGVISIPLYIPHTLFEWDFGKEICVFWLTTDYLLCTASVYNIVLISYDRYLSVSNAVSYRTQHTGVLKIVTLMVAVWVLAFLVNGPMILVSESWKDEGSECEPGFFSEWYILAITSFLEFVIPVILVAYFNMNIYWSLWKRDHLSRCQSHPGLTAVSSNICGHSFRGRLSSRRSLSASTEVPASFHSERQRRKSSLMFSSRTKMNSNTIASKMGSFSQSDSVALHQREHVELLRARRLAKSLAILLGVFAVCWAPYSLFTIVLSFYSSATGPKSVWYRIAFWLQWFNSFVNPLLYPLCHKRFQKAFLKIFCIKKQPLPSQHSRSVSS
Procedure: (§1) The cell-based assays utilize an aequorin dependent bioluminescence signal. Doubly-transfected, stable CHO-K1 cell lines expressing human H4, or H1, mitochondrion-targeted aequorin, and (H4 only) human G protein Gα16 are obtained from Perkin-Elmer. Cells are maintained in F12 (Ham's) growth medium, containing 10% (vol./vol.) fetal bovine serum, penicillin (100 IU/mL), streptomycin (0.1 mg/mL), zeocin (0.25 mg/mL) and geneticin (0.40 mg/mL). Cell media components are from Invitrogen, Inc. One day prior to assay, the growth medium is replaced with the same, excluding zeocin and geneticin. In some assays, cells previously frozen at “ready to use density” are thawed and immediately available for loading with coelenterazine-h dye as described below. […]
(§2) Just before assay, the dye-loaded cells are diluted to 1.5×10^6 cells/mL (H4 receptor) or 0.75×10^6 cells/mL (H1 receptor) with additional assay medium. […] Assay plates are then transferred to a Lumilux bioluminescence plate reader (Perkin-Elmer) equipped with an automated 1536 disposable tip pipette. The pipette dispenses 3 μL/well of agonist (histamine, at twice the final concentration, where final concentration is a previously determined EC80) in assay medium, with concurrent bioluminescence detection. […] Efficacy is measured as a percentage of positive control activity.

human H4 [7] = molecular target: T1, human H4; assay: In vitro histamine receptor cell-based assay (aequorin bioluminescence), agonist mode; settings: CHO-K1 cells expressing human H4; test compound alone, without added histamine
Procedure: as §1, §2

BALB/c mice = assay: Model of allergic rhinitis in Balb/C mice, whole-body plethysmography; format: in vivo; set-up: key: +: increase in RF over positive control; −: no increase in RF over positive control; settings: 0.1%, w/v, intranasal instillation 10 μl in each nostril 2.5 hours prior to OVA; day 4 (early phase)
Description: Female BALB/c mice, 6-12 weeks of age, were obtained from Jackson Laboratories (Bar Harbor, Me.). All experimental animals used in this work were under a protocol approved by the Institutional Animal Care and Use Committee of the National Jewish Medical and Research Center, Denver, Colo.
The assay protocol is similar to that described in Miyahara, S. et al. (2005), J Allergy Clin Immunol., 116:1020-1027. The role of the H4 receptor in this model has been validated [Shiraishi, Y. et al. (2009), J Allergy Clin Immunol., 123:556]. Briefly, mice received intraperitoneal injections of 20 μg ovalbumin (OVA, Grade V; Sigma-Aldrich, St. Louis, Mo.), previously emulsified in 2.25 mg of alum (AlumImuject; Pierce, Rockford, Ill.) in a total volume of 100 μL (sensitization phase). Injections occurred on days 0 and 14. […] On day 4 (early phase) and day 7 (late phase) after starting OVA challenges, respiratory frequency (RF) was measured in conscious animals by single chamber restrained whole-body plethysmography (WBP) [Buxco Research Systems, Troy, N.Y.]. […] After whole-body plethysmography on day 7, nasal airflow impedance was measured as described (RNA, see Methods section for Miyahara S. et al. [above] in the online supplemental material at the Journal of Allergy and Clinical Immunology: www.jacionline.org), using a custom-designed ventilator (Flexivent; Scireq, Montreal, Quebec, Canada). […]

CN1CCN(c2ncc(-c3cccs3)n3nnnc23)CC1.CS(=O)(=O)O [Compound 1 Mesylate Salt Form 1, 8-(4-Methylpiperazin-1-yl)-5-(thiophen-2-yl)tetrazolo[1,5-a]pyrazine Mesylate Monohydrate]
solubility thermodynamic ([1]; 0.2 M acetate buffer, pH 5, aqueous buffer, 0.2M Acetate Buffer (pH5), final pH 4.17, residual solid Free Base): 58.2 mg/mL | Filtrate Concentration (equilibrium solubility) ([1]; Water, final pH 3.51, Dissolved, Mesylate Monohydrate): >100 mg/mL | solubility thermodynamic ([1]; water, pH 3.51, water, Water, final pH 3.51, Dissolved): > 100 mg/mL | solubility ([1]; water, aqueous): > 100 mg/mL | improvement in solubility over Compound 1 [2]: > 5 fold | crystal form stability [3]: the most, and the only, stable crystal form | hygroscopicity (GVS) [4]: not hydroscopic | GVS loss of water ([4]; below 20% RH): ~4.30% | GVS water content ([4]; between 20-90% RH): ~4.3%

CN1CCN(c2ncc(-c3cccs3)n3nnnc23)CC1 [Compound 1, 8-(4-Methylpiperazin-1-yl)-5-(thiophen-2-yl)tetrazolo[1,5-a]pyrazine]
solubility at 48 h ([5]; aqueous buffer, 0.1M aqueous Acetic Acid, filtrate pH 4.02, filtrant Free Base): 7.99 mg/mL | solubility at 48 h ([5]; aqueous buffer, 0.1M aqueous Citric Acid, filtrate pH 3.11, filtrant Salt): 1.75 mg/mL | solubility at 48 h ([5]; aqueous buffer, 0.1M aqueous L-Glutamic Acid, filtrate pH 4.28, filtrant Free Base): 6.75 mg/mL | solubility at 48 h ([5]; aqueous buffer, 0.1M aqueous L-Malic Acid, filtrate pH 4.15, filtrant Salt): 13.4 mg/mL | solubility at 48 h ([5]; aqueous buffer, 0.1M aqueous L-Tartaric Acid, filtrate pH 3.48, filtrant Salt): 8.69 mg/mL | solubility at 48 h ([5]; aqueous buffer, 0.1M aqueous Mesic Acid, filtrate pH 1.49, No Solids Isolated): 20 mg/mL | solubility at 48 h ([5]; aqueous buffer, 0.1M aqueous Phosphoric Acid, filtrate pH 1.76, filtrant Salt): 0.87 mg/mL | solubility at 48 h ([5]; aqueous buffer, 0.1M aqueous Succinic Acid, filtrate pH 4.13, filtrant Free Base): 10.4 mg/mL | solubility at 48 h ([5]; aqueous buffer, 0.1M aqueous Sulfuric Acid, filtrate pH 1.39, filtrant Salt): 0.56 mg/mL | solubility at 48 h ([5]; pH 4.2, aqueous buffer, 0.1M aqueous L-Aspartic Acid, filtrate pH 4.20, filtrant Free Base): 8.64 mg/mL | solubility at 48 h ([5]; simulated gastric fluid, 0.1M aqueous Hydrochloric Acid, filtrate pH 1.25, filtrant Salt): 0.99 mg/mL | pEC50 (human H4 [6]): ≥ 5.00 | pEC50 (human H4 [7]): < 4.00 | WBP, Day 4 (respiratory frequency, RF) (BALB/c mice): +

CNC1CN(c2ncc(-c3cccs3)n3nnnc23)C1 [Compound 2, N-methyl-1-(5-(thiophen-2-yl)tetrazolo[1,5-a]pyrazin-8-yl)azetidin-3-amine]
solubility at 48 h ([5]; aqueous buffer, 0.1M aqueous Acetic Acid, filtrate pH 5.41, No Solids Isolated): > 24.5 mg/mL | solubility at 48 h ([5]; aqueous buffer, 0.1M aqueous Citric Acid, filtrate pH 3.69, filtrant Salt): 4.27 mg/mL | solubility at 48 h ([5]; aqueous buffer, 0.1M aqueous L-Aspartic Acid, filtrate pH 4.95, No Solids Isolated): > 18.4 mg/mL | solubility at 48 h ([5]; aqueous buffer, 0.1M aqueous L-Glutamic Acid, filtrate pH 5.46, filtrant Free Base): 10.4 mg/mL | solubility at 48 h ([5]; aqueous buffer, 0.1M aqueous L-Malic Acid, filtrate pH 5.13, No Solids Isolated): > 21.1 mg/mL | solubility at 48 h ([5]; aqueous buffer, 0.1M aqueous L-Tartaric Acid, filtrate pH 3.23, filtrant Salt): 1.39 mg/mL | solubility at 48 h ([5]; aqueous buffer, 0.1M aqueous Mesic Acid, filtrate pH 2.28, No Solids Isolated): > 25.3 mg/mL | solubility at 48 h ([5]; aqueous buffer, 0.1M aqueous Phosphoric Acid, filtrate pH 4.8, filtrant Salt): 0.74 mg/mL | solubility at 48 h ([5]; aqueous buffer, 0.1M aqueous Succinic Acid, filtrate pH 4.75, filtrant Salt): 0.1 mg/mL | solubility at 48 h ([5]; aqueous buffer, 0.1M aqueous Sulfuric Acid, filtrate pH 1.42, filtrant Salt): 0.61 mg/mL | solubility at 48 h ([5]; simulated gastric fluid, 0.1M aqueous Hydrochloric Acid, filtrate pH 2.32, filtrant Salt): 15.2 mg/mL | pEC50 (human H4 [6]): ≥ 5.00 | pEC50 (human H4 [7]): < 4.00 | WBP, Day 4 (respiratory frequency, RF) (BALB/c mice): +
